Reference: patent publication US6737383B1, “Herbicidal oxadiazolidines” (priority 1999, dated 2004)

Columns and labels:
[1] = test system: purple nutsedge; test: Test B pre/postemergence purple nutsedge; format: in vivo, Cyperus rotundus; conditions: for Nutsedge plant response rating: scale of 0 to 10 where 0 is no effect and 10 is complete control
Outline: (§1)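 Test chemicals in a non-phytotoxic solvent mixture with surfactant were sprayed preemergence onto planted seeds and postemergence onto plants 2 to 18 cm tall (1- to 4-leaf stage). After twelve to sixteen days in a greenhouse, injury was visually rated against untreated controls from 0 (no effect) to 10 (complete control).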

[2] = test system: wheat; test: Test B pre/postemergence wheat; format: in vivo, Triticum aestivum; conditions: for Wheat plant response rating: scale of 0 to 10 where 0 is no effect and 10 is complete control
Outline: as §1

[3] = test system: rape; test: Test B pre/postemergence rape; format: in vivo, Brassica napus; conditions: for Rape plant response rating: scale of 0 to 10 where 0 is no effect and 10 is complete control
Outline: as §1

[4] = test system: blackgrass; test: Test B pre/postemergence blackgrass; format: in vivo, Alopecurus myosuroides
Outline: as §1

[5] = test system: smallflower flatsedge; test: Test B flood test smallflower flatsedge; format: in vivo, Cyperus difformis
Outline: (§2)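 Plants were grown to the 2-leaf stage before treatment with test chemical, then held in a greenhouse for twelve to sixteen days. Injury was visually rated against untreated controls on a 0–10 scale, where 0 is no effect and 10 is complete control.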

[6] = test system: pigweed; test: Test B pre/postemergence pigweed; format: in vivo, Amaranthus retroflexus; conditions: for Redroot pigweed plant response rating: scale of 0 to 10 where 0 is no effect and 10 is complete control
Outline: as §1

[7] = test system: giant foxtail; test: Test B pre/postemergence giant foxtail; format: in vivo, Setaria faberii; conditions: for Giant foxtail plant response rating: scale of 0 to 10 where 0 is no effect and 10 is complete control
Outline: as §1

[8] = test system: soybean; test: Test B pre/postemergence soybean; format: in vivo, Glycine max; conditions: for Soybean plant response rating: scale of 0 to 10 where 0 is no effect and 10 is complete control
Outline: as §1

[9] = test system: wild oat; test: Test B pre/postemergence wild oat; format: in vivo, Avena fatua; conditions: for Wild oats plant response rating: scale of 0 to 10 where 0 is no effect and 10 is complete control
Outline: as §1

[10] = test system: velvetleaf; test: Test B pre/postemergence velvetleaf; format: in vivo, Abutilon theophrasti; conditions: for Velvetleaf plant response rating: scale of 0 to 10 where 0 is no effect and 10 is complete control
Outline: as §1

[11] = test system: duck salad; test: Test B flood test duck salad; format: in vivo, Heteranthera limosa
Outline: as §2

[12] = test system: sugar beet; test: Test B pre/postemergence sugar beet; format: in vivo, Beta vulgaris; conditions: for Sugarbeets plant response rating: scale of 0 to 10 where 0 is no effect and 10 is complete control
Outline: as §1

[13] = test system: cocklebur; test: Test B pre/postemergence cocklebur; format: in vivo, Xanthium strumarium; conditions: for Cocklebur plant response rating: scale of 0 to 10 where 0 is no effect and 10 is complete control
Outline: as §1

[14] = test system: rice; test: Test B flood test rice; format: in vivo, Oryza sativa
Outline: as §2

[15] = test system: morningglory; test: Test B pre/postemergence morningglory; format: in vivo, Ipomoea hederacea; conditions: for Morningglory plant response rating: scale of 0 to 10 where 0 is no effect and 10 is complete control
Outline: as §1

[16] = test system: bamyardgrass; test: Test B flood test barnyardgrass; format: in vivo, Echinochloa crus-galli
Outline: as §2

[17] = Postemergence, Rate 125 g/ha, scale 0 to 10, 0 is no effect, 10 is complete control
[18] = Preemergence, Rate 62 g/ha, scale 0 to 10 (0 no effect, 10 complete control)
[19] = Rate 500 g/ha, Postemergence, scale 0 to 10, 0 no effect, 10 complete control
[20] = Postemergence (flood test), Rate 125 g/ha, scale 0 to 10, 0 is no effect, 10 is complete control
[21] = Rate 62 g/ha, Postemergence (flood test species), scale of 0 to 10 where 0 is no effect and 10 is complete control
[22] = Rate 500 g/ha, listed under Postemergence (flood test species), scale 0 to 10, 0 no effect, 10 complete control

COCC(C)n1c(=O)on(C(=O)N(c2ccc(F)cc2F)C(C)C)c1=O (centres unmarked) [Compound 357]
Plant response rating, Nutsedge [1, 17]: 0 | Plant response rating, Nutsedge [1, 18]: 0 | Nutsedge plant response rating (0 to 10 scale) ([1]; Preemergence, Rate 125 g/ha): 0 | Nutsedge plant response rating ([1]; Preemergence, Rate 250 g/ha): 0 | Nutsedge plant response rating ([1]; Preemergence, Rate 500 g/ha): 6 | Nutsedge plant response rating ([1]; Rate 62 g/ha, Postemergence): 0 | Plant response rating, Nutsedge [1, 19]: 2 | Plant response rating, Wheat [2, 17]: 5 | Plant response rating, Wheat [2, 18]: 4 | Wheat plant response rating (0 to 10 scale) ([2]; Preemergence, Rate 125 g/ha): 6 | Wheat plant response rating ([2]; Preemergence, Rate 250 g/ha): 9 | Wheat plant response rating ([2]; Preemergence, Rate 500 g/ha): 9 | Wheat plant response rating ([2]; Rate 62 g/ha, Postemergence): 4 | Plant response rating, Wheat [2, 19]: 7 | Plant response rating, Rape [3, 17]: 0 | Plant response rating, Rape [3, 18]: 0 | Rape plant response rating (0 to 10 scale) ([3]; Preemergence, Rate 125 g/ha): 2 | Rape plant response rating ([3]; Preemergence, Rate 250 g/ha): 8 | Rape plant response rating ([3]; Preemergence, Rate 500 g/ha): 8 | Rape plant response rating ([3]; Rate 62 g/ha, Postemergence): 0 | Plant response rating, Rape [3, 19]: 4 | Plant response rating, Blackgrass [4, 17]: 6 | Plant response rating, Blackgrass [4, 18]: 7 | Blackgrass plant response rating (0 to 10 scale) ([4]; Preemergence, Rate 125 g/ha): 8 | Blackgrass plant response rating ([4]; Preemergence, Rate 250 g/ha, scale of 0 to 10 where 0 is no effect and 10 is complete control): 9 | Blackgrass plant response rating ([4]; Preemergence, Rate 500 g/ha, scale of 0 to 10 where 0 is no effect and 10 is complete control): 10 | Blackgrass plant response rating ([4]; Rate 62 g/ha, Postemergence, scale of 0 to 10 where 0 is no effect and 10 is complete control): 3 | Plant response rating, Blackgrass ([4]; Rate 250 g/ha, Postemergence, scale of 0 to 10 where 0 is no effect and 10 is complete control): 6 | Plant response rating, Blackgrass [4, 19]: 7 | Plant response rating, S. Flatsedge [5, 20]: 0 | S. Flatsedge plant response rating [5, 21]: 0 | Plant response rating, S. Flatsedge [5, 22]: 8 | Plant response rating, Redroot pigweed [6, 17]: 0 | Plant response rating, Redroot pigweed [6, 18]: 7 | Redroot pigweed plant response rating (0 to 10 scale) ([6]; Preemergence, Rate 125 g/ha): 10 | Redroot pigweed plant response rating ([6]; Preemergence, Rate 250 g/ha): 10 | Redroot pigweed plant response rating ([6]; Preemergence, Rate 500 g/ha): 10 | Redroot pigweed plant response rating ([6]; Rate 62 g/ha, Postemergence): 0 | Plant response rating, Redroot pigweed [6, 19]: 8 | Plant response rating, Giant foxtail [7, 17]: 8 | Plant response rating, Giant foxtail [7, 18]: 10 | Giant foxtail plant response rating (0 to 10 scale) ([7]; Preemergence, Rate 125 g/ha): 10 | Giant foxtail plant response rating ([7]; Preemergence, Rate 250 g/ha): 10 | Giant foxtail plant response rating ([7]; Preemergence, Rate 500 g/ha): 10 | Giant foxtail plant response rating ([7]; Rate 62 g/ha, Postemergence): 8 | Plant response rating, Giant foxtail [7, 19]: 9 | Plant response rating, Soybean [8, 17]: 2 | Plant response rating, Soybean [8, 18]: 0 | Soybean plant response rating (0 to 10 scale) ([8]; Preemergence, Rate 125 g/ha): 0 | Soybean plant response rating ([8]; Preemergence, Rate 250 g/ha): 0 | Soybean plant response rating ([8]; Preemergence, Rate 500 g/ha): 0 | Soybean plant response rating ([8]; Rate 62 g/ha, Postemergence): 2 | Plant response rating, Soybean [8, 19]: 3 | Plant response rating, Wild oats [9, 17]: 4 | Plant response rating, Wild oats [9, 18]: 9 | Wild oats plant response rating (0 to 10 scale) ([9]; Preemergence, Rate 125 g/ha): 10 | Wild oats plant response rating ([9]; Preemergence, Rate 250 g/ha): 10 | Wild oats plant response rating ([9]; Preemergence, Rate 500 g/ha): 10 | Wild oats plant response rating ([9]; Rate 62 g/ha, Postemergence): 3 | Plant response rating, Wild oats [9, 19]: 6 | Plant response rating, Velvetleaf [10, 17]: 2 | Plant response rating, Velvetleaf [10, 18]: 4 | Velvetleaf plant response rating (0 to 10 scale) ([10]; Preemergence, Rate 125 g/ha): 5 | Velvetleaf plant response rating ([10]; Preemergence, Rate 250 g/ha): 5 | Velvetleaf plant response rating ([10]; Preemergence, Rate 500 g/ha): 7 | Velvetleaf plant response rating ([10]; Rate 62 g/ha, Postemergence): 2 | Plant response rating, Velvetleaf [10, 19]: 4 | Plant response rating, Ducksalad [11, 20]: 0 | Ducksalad plant response rating [11, 21]: 0 | Plant response rating, Ducksalad [11, 22]: 2 | Plant response rating, Sugarbeets [12, 17]: 0 | Plant response rating, Sugarbeets [12, 18]: 2 | Sugarbeets plant response rating (0 to 10 scale) ([12]; Preemergence, Rate 125 g/ha): 3 | Sugarbeets plant response rating ([12]; Preemergence, Rate 250 g/ha): 5 | Sugarbeets plant response rating ([12]; Preemergence, Rate 500 g/ha): 6 | Sugarbeets plant response rating ([12]; Rate 62 g/ha, Postemergence): 0 | Plant response rating, Sugarbeets [12, 19]: 0 | Plant response rating, Cocklebur [13, 17]: 0 | Plant response rating, Cocklebur [13, 18]: 0 | Cocklebur plant response rating (0 to 10 scale) ([13]; Preemergence, Rate 125 g/ha): 0 | Cocklebur plant response rating ([13]; Preemergence, Rate 250 g/ha): 0 | Cocklebur plant response rating ([13]; Preemergence, Rate 500 g/ha): 0 | Cocklebur plant response rating ([13]; Rate 62 g/ha, Postemergence): 0 | Plant response rating, Cocklebur [13, 19]: 2 | Plant response rating, Rice [14, 20]: 0 | Rice plant response rating [14, 21]: 0 | Plant response rating, Rice [14, 22]: 2 | Plant response rating, Morningglory [15, 17]: 2 | Plant response rating, Morningglory [15, 18]: 0 | Morningglory plant response rating (0 to 10 scale) ([15]; Preemergence, Rate 125 g/ha): 2 | Morningglory plant response rating ([15]; Preemergence, Rate 250 g/ha): 2 | Morningglory plant response rating ([15]; Preemergence, Rate 500 g/ha): 7 | Morningglory plant response rating ([15]; Rate 62 g/ha, Postemergence): 2 | Plant response rating, Morningglory [15, 19]: 8 | Plant response rating, Barnyardgrass [16, 20]: 2 | Barnyardgrass plant response rating [16, 21]: 0 | Plant response rating, Barnyardgrass ([16]; Rate 250 g/ha, Postemergence (flood test species), scale of 0 to 10 where 0 is no effect and 10 is complete control): 4 | Plant response rating, Barnyardgrass [16, 22]: 6
